In US20240376100A1 (Redona Therapeutics, Inc., priority 2021, published 2024):
Structures can show the parent of a compound that is named as a salt.

target: PAPD5 enzyme (Homo sapiens, UniProt Q8NDF8); experiment: PAPD5 assay (AMP incorporation onto 3'-terminus of RNA substrate, fluorescence quench); assay type: biochemical; settings: PAPD5 protein 0.3 nM, ATP 50 μM, 30 minutes preincubation, room temperature; read-out: Potency PAPD5 IC50
In short: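 Enzyme at 0.3 nM with 50 μM ATP, pH 7.3 HEPES buffer, preincubated with compound 30 minutes at room temperature; 5 nM 5′-fluorescein RNA substrate and 20 nM TAMRA quench probe then added. Initial rates from kinetic fluorescein decrease over ~90 minutes; IC50 by four-parameter fit.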

Sequence of PAPD5 enzyme (Q8NDF8 whole entry): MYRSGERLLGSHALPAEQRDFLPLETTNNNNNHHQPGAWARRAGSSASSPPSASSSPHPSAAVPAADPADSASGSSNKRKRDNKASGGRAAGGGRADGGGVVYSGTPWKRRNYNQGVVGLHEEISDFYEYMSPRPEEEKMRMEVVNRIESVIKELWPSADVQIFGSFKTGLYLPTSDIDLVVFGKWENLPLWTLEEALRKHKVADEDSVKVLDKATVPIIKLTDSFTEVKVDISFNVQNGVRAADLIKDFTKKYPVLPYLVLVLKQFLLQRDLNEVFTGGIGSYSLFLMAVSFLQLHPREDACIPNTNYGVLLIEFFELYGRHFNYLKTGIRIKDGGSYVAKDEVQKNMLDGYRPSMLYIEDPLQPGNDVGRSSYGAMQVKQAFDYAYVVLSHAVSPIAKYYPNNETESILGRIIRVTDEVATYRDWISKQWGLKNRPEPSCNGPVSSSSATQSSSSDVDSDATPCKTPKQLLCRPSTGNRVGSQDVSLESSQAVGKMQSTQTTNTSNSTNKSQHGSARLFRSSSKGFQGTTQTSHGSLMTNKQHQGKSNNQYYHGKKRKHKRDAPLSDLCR

Row | Compound | IC50 [nM]
1 | O=C(O)c1cn(Cc2c[nH]cn2)c2cc(N3Cc4cccnc4C3)c(Cl)cc2c1=O [Example 85, 1-((1H-imidazol-4-yl)methyl)-6-chloro-7-(5,7-dihydro-6H-pyrrolo[3,4-b]pyridin-6-yl)-4-oxo-1,4-dihydroquinoline-3-carboxylic acid] | ≤ 1000
2 | Cc1cc(N(C)C)ncc1-n1cc(C(=O)O)c(=O)c2cc(F)c(N3Cc4cccnc4C3)cc21 [Example 86, 7-(5,7-dihydro-6H-pyrrolo[3,4-b]pyridin-6-yl)-1-(6-(dimethylamino)-4-methylpyridin-3-yl)-6-fluoro-4-oxo-1,4-dihydroquinoline-3-carboxylic acid] | ≤ 1000
3 | CNc1cc(C)c(-n2cc(C(=O)O)c(=O)c3cc(F)c(N4Cc5cccnc5C4)cc32)cn1 [Example 87, 7-(5,7-dihydro-6H-pyrrolo[3,4-b]pyridin-6-yl)-6-fluoro-1-(4-methyl-6-(methylamino)pyridin-3-yl)-4-oxo-1,4-dihydroquinoline-3-carboxylic acid] | ≤ 1000
4 | CCOC(=O)c1cn(-c2ccc(O)nc2)c2cc(N3Cc4cccnc4C3)c(Cl)cc2c1=O [Example 88, Ethyl 6-chloro-1-(6-hydroxypyridin-3-yl)-4-oxo-7-{5H,7H-pyrrolo[3,4-b]pyridin-6-yl}quinoline-3-carboxylate] | ≤ 1000
5 | CN(CCO)c1ccn(-c2cc3c(cc2Cl)c(=O)c(C(=O)O)cn3-c2ccc(N)nc2)n1 [Example 92, 1-(6-aminopyridin-3-yl)-6-chloro-7-(3-((2-hydroxyethyl)(methyl)amino)-1H-pyrazol-1-yl)-4-oxo-1,4-dihydroquinoline-3-carboxylic acid] | ≤ 1000
6 | CN(CCO)c1ccn(-c2nc3c(cc2Cl)c(=O)c(C(=O)O)cn3-c2ccc(N)nc2)n1 [Example 93, 1-(6-aminopyridin-3-yl)-6-chloro-7-(3-((2-hydroxyethyl)(methyl)amino)-1H-pyrazol-1-yl)-4-oxo-1,4-dihydro-1,8-naphthyridine-3-carboxylic acid] | ≤ 1000
7 | COCCN(C)c1ccn(-c2cc3c(cc2Cl)c(=O)c(C(=O)O)cn3-c2ccc(N)nc2)n1 [Example 94, 1-(6-aminopyridin-3-yl)-6-chloro-7-(3-((2-methoxyethyl)(methyl)amino)-1H-pyrazol-1-yl)-4-oxo-1,4-dihydroquinoline-3-carboxylic acid] | ≤ 1000
8 | N#Cc1cc2c(=O)c(C(=O)O)cn(-c3cnc(N)cn3)c2cc1N1Cc2cccnc2C1 [Example 96, 1-(5-aminopyrazin-2-yl)-6-cyano-7-(5,7-dihydro-6H-pyrrolo[3,4-b]pyridin-6-yl)-4-oxo-1,4-dihydroquinoline-3-carboxylic acid] | ≤ 1000
9 | COCCN1CCC(Cn2cc(C(=O)O)c(=O)c3cc(Cl)c(N4Cc5cccnc5C4)nc32)CC1 [Example 100, 6-chloro-7-(5,7-dihydro-6H-pyrrolo[3,4-b]pyridin-6-yl)-1-((1-(2-methoxyethyl)piperidin-4-yl)methyl)-4-oxo-1,4-dihydro-1,8-naphthyridine-3-carboxylic acid hydro chloride] | ≤ 1000
10 | O=C(O)c1cn(C2CCOCC2)c2nc(N3Cc4cccnc4C3)c(Cl)cc2c1=O [Example 101, 6-chloro-7-(5,7-dihydro-6H-pyrrolo[3,4-b]pyridin-6-yl)-4-oxo-1-(tetrahydro-2H-pyran-4-yl)-1,4-dihydro-1,8-naphthyridine-3-carboxylic acid] | ≤ 1000
11 | COc1cnc(-n2cc(C(=O)O)c(=O)c3cc(F)c(N4Cc5cccnc5C4)nc32)cn1 [Example 103, 7-(5,7-dihydro-6H-pyrrolo[3,4-b]pyridin-6-yl)-6-fluoro-1-(5-methoxypyrazin-2-yl)-4-oxo-1,4-dihydro-1,8-naphthyridine-3-carboxylic acid] | ≤ 1000
12 | Cc1cc(NC(=O)C2CC2)ncc1-n1cc(C(=O)O)c(=O)c2cc(Cl)c(N3Cc4cccnc4C3)cc21 [Example 114, 6-chloro-1-(6-(cyclopropanecarboxamido)-4-methylpyridin-3-yl)-7-(5,7-dihydro-6H-pyrrolo[3,4-b]pyridin-6-yl)-4-oxo-1,4-dihydroquinoline-3-carboxylic acid] | ≤ 1000
13 | Cc1cc(NC(=O)N2CCOCC2)ncc1-n1cc(C(=O)O)c(=O)c2cc(Cl)c(N3Cc4cccnc4C3)cc21 [Example 115, 6-chloro-7-(5,7-dihydro-6H-pyrrolo[3,4-b]pyridin-6-yl)-1-(4-methyl-6-(morpholine-4-carboxamido)pyridin-3-yl)-4-oxo-1,4-dihydroquinoline-3-carboxylic acid] | ≤ 1000
14 | Cc1cc(NC(=O)N(C)C)ncc1-n1cc(C(=O)O)c(=O)c2cc(Cl)c(N3Cc4cccnc4C3)cc21 [Example 116, 6-chloro-7-(5,7-dihydro-6H-pyrrolo[3,4-b]pyridin-6-yl)-1-(6-(3,3-dimethylureido)-4-methylpyridin-3-yl)-4-oxo-1,4-dihydroquinoline-3-carboxylic acid] | ≤ 1000
15 | CCc1cc(N)ncc1-n1cc(C(=O)O)c(=O)c2cc(Cl)c(N3Cc4cccnc4C3)cc21 [Example 117, 1-(6-amino-4-ethylpyridin-3-yl)-6-chloro-7-(5,7-dihydro-6H-pyrrolo[3,4-b]pyridin-6-yl)-4-oxo-1,4-dihydroquinoline-3-carboxylic acid] | ≤ 1000
16 | O=C(O)c1cn(C2CCNCC2)c2cc(N3Cc4cccnc4C3)c(Cl)cc2c1=O [Example 123, 6-chloro-7-(5,7-dihydro-6H-pyrrolo[3,4-b]pyridin-6-yl)-4-oxo-1-(piperidin-4-yl)-1,4-dihydroquinoline-3-carboxylic acid hydrochloride] | ≤ 1000
17 | CC(=O)N1CCC(n2cc(C(=O)O)c(=O)c3cc(Cl)c(N4Cc5cccnc5C4)cc32)CC1 [Example 126, 1-(1-acetylpiperidin-4-yl)-6-chloro-7-(5,7-dihydro-6H-pyrrolo[3,4-b]pyridin-6-yl)-4-oxo-1,4-dihydroquinoline-3-carboxylic acid] | ≤ 1000
18 | CN(C)C(=O)N1CCC(Cn2cc(C(=O)O)c(=O)c3cc(Cl)c(N4Cc5cccnc5C4)cc32)CC1 [Example 129, 6-chloro-7-(5,7-dihydro-6H-pyrrolo[3,4-b]pyridin-6-yl)-1-((1-(dimethylcarbamoyl)piperidin-4-yl)methyl)-4-oxo-1,4-dihydroquinoline-3-carboxylic acid] | ≤ 1000

Next, values leading:

Row | IC50 [nM] | Compound
19 | ≤ 1000 | CCOC(=O)c1cn(-c2ccc(N)nc2)c2cc(N3Cc4cccnc4C3)c(Cl)cc2c1=O [Example 89]
20 | ≤ 1000 | CCOC(=O)c1cn(-c2ccc(Cl)nc2)c2cc(N3Cc4cccnc4C3)c(Cl)cc2c1=O [Example 90, Ethyl 6-chloro-1-(6-chloropyridin-3-yl)-7-(5,7-dihydro-6H-pyrrolo[3,4-b]pyridin-6-yl)-4-oxo-1,4-dihydroquinoline-3-carboxylate]
21 | ≤ 1000 | Cc1cc(N2CCC2)ncc1-n1cc(C(=O)O)c(=O)c2cc(Cl)c(N3Cc4cccnc4C3)nc21 [Example 91, 1-(6-(azetidin-1-yl)-4-methylpyridin-3-yl)-6-chloro-7-(5,7-dihydro-6H-pyrrolo[3,4-b]pyridin-6-yl)-4-oxo-1,4-dihydro-1,8-naphthyridine-3-carboxylic acid]
22 | ≤ 1000 | COCCN(C)c1ccn(-c2nc3c(cc2Cl)c(=O)c(C(=O)O)cn3-c2ccc(N)nc2)n1 [Example 95, 1-(6-aminopyridin-3-yl)-6-chloro-7-(3-((2-methoxyethyl)(methyl)amino)-1H-pyrazol-1-yl)-4-oxo-1,4-dihydro-1,8-naphthyridine-3-carboxylic acid]
23 | ≤ 1000 | Nc1cc(C2CC2)c(-n2cc(C(=O)O)c(=O)c3cc(Cl)c(N4Cc5cccnc5C4)cc32)cn1 [Example 118, 1-(6-amino-4-cyclopropylpyridin-3-yl)-6-chloro-7-(5,7-dihydro-6H-pyrrolo[3,4-b]pyridin-6-yl)-4-oxo-1,4-dihydroquinoline-3-carboxylic acid]
24 | ≤ 1000 | O=C(O)c1cn(CC2CCNCC2)c2cc(N3Cc4cccnc4C3)c(Cl)cc2c1=O [Example 119, 6-chloro-7-(5,7-dihydro-6H-pyrrolo[3,4-b]pyridin-6-yl)-4-oxo-1-(piperidin-4-ylmethyl)-1,4-dihydroquinoline-3-carboxylic acid hydrochloride]
25 | ≤ 1000 | CN1CCC(Cn2cc(C(=O)O)c(=O)c3cc(Cl)c(N4Cc5cccnc5C4)cc32)CC1 [Example 120, 6-chloro-7-(5,7-dihydro-6H-pyrrolo[3,4-b]pyridin-6-yl)-1-((1-methylpiperidin-4-yl)methyl)-4-oxo-1,4-dihydroquinoline-3-carboxylic acid]
26 | ≤ 1000 | CN1CCC(n2cc(C(=O)O)c(=O)c3cc(Cl)c(N4Cc5cccnc5C4)cc32)CC1 [Example 121, 6-chloro-7-(5,7-dihydro-6H-pyrrolo[3,4-b]pyridin-6-yl)-1-(1-methylpiperidin-4-yl)-4-oxo-1,4-dihydroquinoline-3-carboxylic acid]
27 | ≤ 1000 | CC(=O)N1CCC(Cn2cc(C(=O)O)c(=O)c3cc(Cl)c(N4Cc5cccnc5C4)cc32)CC1 [Example 122, 1-((1-acetylpiperidin-4-yl)methyl)-6-chloro-7-(5,7-dihydro-6H-pyrrolo[3,4-b]pyridin-6-yl)-4-oxo-1,4-dihydroquinoline-3-carboxylic acid]
28 | ≤ 1000 | Cn1cc(Cn2cc(C(=O)O)c(=O)c3cc(Cl)c(N4Cc5cccnc5C4)cc32)cn1 [Example 124, 6-chloro-7-(5,7-dihydro-6H-pyrrolo[3,4-b]pyridin-6-yl)-1-((1-methyl-1H-pyrazol-4-yl)methyl)-4-oxo-1,4-dihydroquinoline-3-carboxylic acid]
29 | ≤ 1000 | COCCN1CCC(Cn2cc(C(=O)O)c(=O)c3cc(Cl)c(N4Cc5cccnc5C4)cc32)CC1 [Example 125, 6-chloro-7-(5,7-dihydro-6H-pyrrolo[3,4-b]pyridin-6-yl)-1-((1-(2-methoxyethyl)piperidin-4-yl)methyl)-4-oxo-1,4-dihydroquinoline-3-carboxylic acid hydrochloride]
